Patent US7718674B2, “Methods of relieving neuropathic pain with the S-isomer of 2-{2[N-(2-indanyl)-N-phenylamino]ethyl}piperidine” (Bridge Pharma, Inc., priority 2004, dated 2010)
“Also recorded” adds a separate entry of the source.

What was measured:
[1] = test system: skin on the back of male or female guinea pigs; conditions: from U.S. Pat. No. 6,413,987; cited from earlier work
[2] = from U.S. Pat. No. 6,413,987; cited from earlier work
[3] = test system: skin on the back of male or female guinea pigs; test: Dermal anesthetic activity, pin-prick method after dermal application; assay type: in vivo, guinea pig; conditions: for anesthetic score (dermal anesthetic effect, FIG. 1): after 30 min application, score = average number of six probings not producing a skin twitch, 10% solution of base in DMSO/water
Protocol: Approximately 18-24 hours before each experiment, the skin on the back of male or female guinea pigs was shaved and depilated with a commercially available hair remover. The anesthetic action of each agent following dermal application was determined using a “pin-prick” method as described by Aberg (Acta Pharmacol Toxicol, 1972, 31: 273-286). Before and at various intervals after treatment, the area of the skin was tested for the presence or absence of a skin twitch in response to six standardized dermal probings with a pointed metal “algesimeter” at a predetermined maximum load of 10 grams. The average number of probings not producing a skin twitch response was designated as the “anesthetic score”. In this test system no response to six stimuli represents a “maximal anesthetic activity”. In the present calculations, the dermal anesthetic activity was calculated from the time of removal of the test article formulation from the skin until skin twitch responses to all but one pinprick were identified. In experiments on the dermal anesthetic activity, a single area of skin 1 inch square was marked off on the middle of the back of each animal. This area was covered by a 1 inch square, 16 layer thick gauze pad onto which was deposited 0.45 ml of a 10% solution of the test agent dissolved in a mixture of water and DMSO. The gauze pad was covered with a 1.5 inch square sheet of Saran Wrap™ which was attached to the surrounding skin with tape. The entire area was then covered by wrapping an elastic bandage around the trunk of the animal. After a predetermined duration of treatment, the coverings were removed and the skin assessed for the presence of anesthesia as described above. Dermal anesthesia tests were performed at ten-minute intervals to measure onset time and duration of dermal anesthetic activity; comparisons were made with reference compounds and vehicle. All test compounds were in the base form and dissolved in DMSO/water when tested for dermal anesthesia.

Analgesic activity = test: Analgesic activity; parameters: species or system rats; conditions: rat, in vivo
Protocol: Peripheral mononeuropathy is induced in rats by loose ligation of the sciatic nerve in anesthetized rats. Fourteen days later, the nociceptive threshold is evaluated after animal dosing with drug or vehicle, using graded paw pressure testing to assess hyperalgesia.
Diabetes is induced in rats by intraperitoneal injection of streptozotocin. Three weeks later, the nociceptive threshold is measured after animal dosing using the paw pressure to assess hyperalgesia.

Dermal / tissue toxicity = conditions: in vivo

Compound	local / dermal anesthetic activity [1]	tissue toxicity [2]	anesthetic score (dermal anesthetic effect, FIG. 1) [3]	onset of dermal anesthetic activity ([3]; comparison of the enantiomers of LAC-34)	duration of action (duration of anesthesia) ([3]; comparison with racemate and other enantiomer, same concentration)	analgesic activity (Analgesic activity)	dermal toxicity (Dermal / tissue toxicity)
c1ccc(N(CCC2CCCCN2)C2Cc3ccccc3C2)cc1 (racemic) [RS-LAC-34, 2-{2-[N-(2-indanyl)-N-phenylamino]ethyl}piperidine]	active local anesthetic compound	little, if any, tissue toxicity	–	–	–	–	–
c1ccc(N(CC[C@H]2CCCCN2)C2Cc3ccccc3C2)cc1 [R-LAC-34]	–	–	3.5	significantly shorter; also recorded: shorter onset of action	shorter duration of action	–	–
c1ccc(N(CC[C@@H]2CCCCN2)C2Cc3ccccc3C2)cc1 [S-LAC-34, S-2-{2-[N-(2-indanyl)-N-phenylamino]ethyl}piperidine]	–	–	2.6	–	–	expresses analgesic activity	low dermal toxicity
